# Values quoted from earlier work, collected in patent US10984362B2, “Methods for post-harvest crop pest management” (priority 2017, dated 2021).
# Like-named read-outs stand apart in the source and are kept apart here.
# What was measured:
# [1] = system: tobacco moth and susceptible cigarette beetle; settings: 100% control of all development stages
# [2] = system: resistant cigarette beetle; settings: 100% control of all development stages
# [3] = tobacco temperature 16-20 °C (61-68 °F), 300 ppm phosphine at the bale/case centre
smiles,measurement,setting,value
"P [Phosphine, phosphine]",Minimum Exposure Time,[1]; [3],6 days
same,Minimum Exposure Time,"[1]; tobacco temperature >20 °C (>68 °F), 200 ppm phosphine at the bale/case centre",4 days
same,Minimum Exposure Time,[2]; [3],12 days
same,Minimum Exposure Time,"[2]; tobacco temperature 20-25 °C (68-77 °F), 300 ppm phosphine at the bale/case centre",12 days
same,Minimum Exposure Time,"[2]; tobacco temperature 20-25 °C (68-77 °F), 700 ppm phosphine at the bale/case centre",10 days
same,Minimum Exposure Time,"[2]; tobacco temperature >25 °C (>77 °F), 300 ppm phosphine at the bale/case centre",12 days
same,Minimum Exposure Time,"[2]; tobacco temperature >25 °C (>77 °F), 600 ppm phosphine at the bale/case centre",6 days
